Structures can show the parent of a compound that is named as a salt.
Columns and labels:
HCN2 = HCN2 (Homo sapiens (Human), UniProt Q9UL51); experiment: HCN2 current assay using PatchXpress 7000A; assay type: cell-based; details: PatchXpress protocol; read-out: PX HCN2 IC50
Method: (§1) Example 126A, Using PatchXpress 7000A
(§2) Solutions for recording HCN currents were:
The membrane voltage was then stepped back to −30 mV for a further 8 seconds.
(§3) The peak inward current measured at the end of the pulse to −110 mV (HCN1 and HCN2) or −130 mV (HCN4) was measured and any leak current subtracted to calculate the HCN current. The HCN current amplitude was measured after each control or compound addition and normalized to the control amplitude (Control A).
(§4) All experiments were performed at room temperature (approximately 22° C.).
(§5) Each test compound concentration was applied to the cell for seven (7) minutes, at which point the next cumulative concentration was applied.

HCN4 = HCN4 (Homo sapiens (Human), UniProt Q9Y3Q4); experiment: HCN4 current assay using PatchXpress 7000A; assay type: cell-based; details: PatchXpress protocol; read-out: PX HCN4 IC50
Method: as §1, §2, §3, §4, §5

HCN4, sequence (Q9Y3Q4 whole entry, species assumed): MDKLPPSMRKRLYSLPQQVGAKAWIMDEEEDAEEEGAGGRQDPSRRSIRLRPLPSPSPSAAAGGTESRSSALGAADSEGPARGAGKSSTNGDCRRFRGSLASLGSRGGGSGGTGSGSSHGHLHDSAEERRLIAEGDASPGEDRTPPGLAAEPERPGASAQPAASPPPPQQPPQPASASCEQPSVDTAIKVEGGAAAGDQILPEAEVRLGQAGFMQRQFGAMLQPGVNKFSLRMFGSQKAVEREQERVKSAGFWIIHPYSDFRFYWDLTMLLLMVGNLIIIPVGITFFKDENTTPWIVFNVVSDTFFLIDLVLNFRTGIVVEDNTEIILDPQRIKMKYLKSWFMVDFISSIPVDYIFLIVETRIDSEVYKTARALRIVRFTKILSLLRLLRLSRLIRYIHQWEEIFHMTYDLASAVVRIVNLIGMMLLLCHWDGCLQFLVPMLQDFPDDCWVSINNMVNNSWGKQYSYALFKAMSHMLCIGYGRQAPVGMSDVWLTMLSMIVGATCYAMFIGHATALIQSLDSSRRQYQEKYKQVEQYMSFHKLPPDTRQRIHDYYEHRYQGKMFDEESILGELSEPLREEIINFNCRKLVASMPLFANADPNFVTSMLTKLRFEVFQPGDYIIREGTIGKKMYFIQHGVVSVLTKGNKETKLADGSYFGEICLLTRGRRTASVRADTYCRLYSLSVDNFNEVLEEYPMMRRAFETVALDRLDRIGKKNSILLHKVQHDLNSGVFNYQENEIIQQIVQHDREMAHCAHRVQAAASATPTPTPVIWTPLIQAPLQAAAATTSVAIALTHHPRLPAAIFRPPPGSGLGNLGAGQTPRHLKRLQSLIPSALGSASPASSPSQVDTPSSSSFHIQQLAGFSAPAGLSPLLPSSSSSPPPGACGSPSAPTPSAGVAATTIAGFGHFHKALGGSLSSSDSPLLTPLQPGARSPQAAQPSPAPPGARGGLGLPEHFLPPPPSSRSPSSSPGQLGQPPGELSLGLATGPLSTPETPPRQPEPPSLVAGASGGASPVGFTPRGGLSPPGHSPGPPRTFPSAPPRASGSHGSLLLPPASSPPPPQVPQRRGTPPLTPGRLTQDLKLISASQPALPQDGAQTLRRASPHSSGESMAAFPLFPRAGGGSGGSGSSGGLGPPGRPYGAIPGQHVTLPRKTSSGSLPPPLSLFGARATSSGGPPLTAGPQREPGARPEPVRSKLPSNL
HCN2, sequence (Q9UL51 whole entry): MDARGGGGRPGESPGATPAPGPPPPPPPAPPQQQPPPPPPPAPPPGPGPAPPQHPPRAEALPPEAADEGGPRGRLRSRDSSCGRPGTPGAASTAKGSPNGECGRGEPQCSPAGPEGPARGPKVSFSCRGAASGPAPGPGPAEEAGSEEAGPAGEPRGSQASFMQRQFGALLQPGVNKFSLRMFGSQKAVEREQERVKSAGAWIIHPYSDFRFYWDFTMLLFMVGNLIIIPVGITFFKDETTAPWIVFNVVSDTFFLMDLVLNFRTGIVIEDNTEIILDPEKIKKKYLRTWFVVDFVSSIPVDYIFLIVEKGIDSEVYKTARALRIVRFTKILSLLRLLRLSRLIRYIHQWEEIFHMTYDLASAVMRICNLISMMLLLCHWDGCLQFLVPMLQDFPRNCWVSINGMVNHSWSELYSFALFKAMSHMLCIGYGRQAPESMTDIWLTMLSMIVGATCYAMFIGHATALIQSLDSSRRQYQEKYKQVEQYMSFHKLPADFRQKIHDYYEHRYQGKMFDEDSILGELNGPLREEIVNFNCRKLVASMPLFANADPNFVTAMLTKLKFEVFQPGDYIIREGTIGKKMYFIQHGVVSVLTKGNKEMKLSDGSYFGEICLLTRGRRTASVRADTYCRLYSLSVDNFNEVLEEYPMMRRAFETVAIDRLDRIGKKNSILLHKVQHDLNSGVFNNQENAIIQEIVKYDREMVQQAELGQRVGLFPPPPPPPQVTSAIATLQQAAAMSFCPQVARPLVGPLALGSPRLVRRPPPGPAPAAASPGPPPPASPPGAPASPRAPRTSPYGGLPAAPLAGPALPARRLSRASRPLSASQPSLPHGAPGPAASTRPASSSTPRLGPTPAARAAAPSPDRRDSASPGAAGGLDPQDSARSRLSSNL

Row | IC50 (HCN2) | IC50 (HCN4) | SMILES
1 | 800 nM | 2000 nM | CN(CCO)c1cccc(C[C@H](N)c2ccccc2-c2noc3ccccc23)n1 [Example 55, (S)-2-[(6-{(S)-2-Amino-2-[2-(benzo[d]isoxazol-3-yl)phenyl]ethyl}pyridine-2-yl)(methyl)amino]ethan-1-ol hydrochloride]
2 | 600 nM | 2400 nM | Cc1ccc(Br)nc1C[C@H](N)c1ccccc1-c1noc2ccccc12 [Example 57, (S)-1-[2-(Benzo[d]isoxazol-3-yl)phenyl]-2-(6-bromo-3-methylpyridin-2-yl)ethan-1-amine hydrochloride]
3 | 500 nM | 7200 nM | Cc1ccc(C#N)nc1C[C@H](N)c1ccccc1-c1noc2ccccc12 [Example 58, (S)-1-[2-(Benzo[d]isoxazol-3-yl)phenyl]-2-(6-cyano-3-methylpyridin-2-yl)ethan-1-amine]
4 | 900 nM | 6800 nM | Cc1ccc(C)c(C[C@H](N)c2ccccc2-c2noc3ccccc23)n1 [Example 59, (S)-1-[2-(benzo[d]isoxazol-3-yl)phenyl]-2(6-vinylpyridin-2-yl)ehtan-1-amine]
5 | 1300 nM | 6400 nM | CC(C)n1nc(-c2ccccc2[C@@H](N)Cc2cccc(Br)n2)c2ccccc21 [Example 64, (S)-2-(6-Bromopyridine-2-yl)-1-[2-(1-isopropyl-1H-indazole-3-yl)phenyl]ethan-1-amine hydrochloride]
6 | 900 nM | 6800 nM | Cc1cccc(C[C@H](N)c2ccccc2-c2nn(C(C)C)c3ccccc23)n1 [Example 66, (S)-1-[2-(1-Isopropyl-1H-indazole-3-yl)phenyl]-2-(6-methylpyridine-2-yl)ethan-1-amine hydrochloride]
7 | 10800 nM | > 30000 nM | N#Cc1ccc(C[C@H](N)c2ccccc2-c2noc3cc(Br)ccc23)nc1 [Example 81, (S)-1-[2-(6-Bromobenzo[d]isoxazol-3-yl)phenyl]-2-(5-cyanopyridine-2-yl)ethan-1-amine]
8 | 1800 nM | > 30000 nM | N[C@@H](Cc1ccccn1)c1cc(Br)ccc1-c1noc2ccccc12 [Example 83, (S)-1-[2-(benzo[d]isoxazol-3-yl)-5-bromophenyl]-2-(pyridine-2-yl)ethan-1-amine]
9 | 1700 nM | 18800 nM | N[C@@H](Cc1ccccn1)c1c(Br)cccc1-c1noc2ccccc12 [Example 87, (S)-1-[2-(Benzo[d]isoxazol-3-yl)-6-bromophenyl]-2-(pyridine-2-yl)ethan-1-amine hydrochloride]
10 | 2700 nM | > 30000 nM | N[C@@H](Cc1ccc(Br)cn1)c1ccccc1-c1noc2ccccc12 [Example 88, (S)-1-[2-(Benzo[d]isoxazol-3-yl)phenyl]-2-(5-bromopyridine-2-yl)ethan-1-amine hydrochloride]
11 | 1200 nM | 4700 nM | Cc1noc(C)c1-c1cccc(C[C@H](N)c2ccccc2-c2noc3ccccc23)n1 [Example 94, (S)-1-[2-(Benzo[d]isoxazol-3-yl)phenyl]-2-[6-(3,5-dimethylisoxazol-4-yl)pyridine-2-yl)-ethan-1-amine hydrochloride]
12 | 2900 nM | > 30000 nM | Cc1cccc(C[C@H](N)c2ccccc2-c2noc3cc(C#N)ccc23)n1 [Example 96, (S)-1-[2-(6-Cyanobenzo[d]isoxazol-3-yl)phenyl]-2-(6-methylpyridine-2-yl)ethan-1-amine]
13 | 2000 nM | 13200 nM | N[C@@H](Cc1cccc(CO)n1)c1ccccc1-c1noc2ccccc12 [Example 98, (S)-1-[2-(Benzo[d]isoxazol-3-yl)phenyl]-2-(6-hydroxymethylpyridine-2-yl)ethan-1-amine hydrochloride]

Row | SMILES | IC50 (HCN2) | IC50 (HCN4)
14 | CC(C)n1nc(-c2ccccc2[C@@H](N)Cc2ccccn2)c2ccccc21 [Example 65, (S)-1-[2-(1-isopropyl-1H-indazole-3-yl)phenyl]-2-(pyridine-2-yl)ethan-1-amine hydrochloride] | 1100 nM | 5100 nM

From patent US20240190854A1, “PYRIMIDINE OR PYRIDINE DERIVATIVES USEFUL AS HCN2 MODULATORS” (King's College London, priority 2021, published 2024)
